{
  "source": "patent US8637467B2",
  "about": "“Pharmaceutical being used for treating cancer and fibrosis disease and the composition and uses thereof” (Wuxi MTLH Biotechnology Co., Ltd., priority 2008, dated 2014)",
  "key": {"[1]": {"tested_on": "human stomach cancer SGC-7901", "assay": "Human stomach cancer SGC-7901 xenograph nude mice", "format": "in vivo", "details": "0.125 mg/kg IV, 6 times a week, 3 weeks", "procedure": "(§1) Experimental animals: Female BALB/cA nude mice, age 35-40 days, weight 18-22 g, provided by Shanghai Silaike Experimental Animal Co. Ltd., certificate number: SOCK (Shanghai) 2007-0005.\n(§2) The tumor of xenograph nude mice grew to 100˜300 mm^3. Tumor mice were divided into different groups for drug testing. In the experiment below, there were 12 nude mice in negative control group, and 6 nude mice in the group with tested drug. Tumor diameter was measured three times each week, and mice weight was measured at the same time.\n(§3) T/C (relative tumor inhibition rate) % was calculated as below: • (1) tumor volume, TV, calculated as below: TV=½×a×b^2 • A and b are length and width. • (2) relative tumor volume, RTV, calculated as below: RTV=TVt/TV0. • TV0 ? is tumor volume at the beginning of drug use (d0), TVt is tumor volume at later time point. • (3) relative tumor inhibition rate T/C (%), calculate as below:\n(§4) [formula] TRTV: treatment group RTV; CRTV: negative control RTV\nPeptide SEQ ID No:1 was given through tail vain (IV), at dosing of 1 mg/kg, 0.5 mg/kg, 0.25 mg/kg, 0.125 mg/kg, and 0.0625 mg/kg, 6 times a week. 5-FU was positive control, at dosing of 25 mg/kg, once a week. Negative control was given saline solution. The xenograph nude mice were treated for 3 weeks."}, "[2]": {"tested_on": "human liver cancer BEL-7402", "assay": "Human liver cancer BEL-7402 xenograph nude mice", "format": "in vivo", "details": "for T/C(%) relative tumor inhibition rate: 6 times a week, 3 weeks", "procedure": "as §1, §2, §3, §4\n[…] Docetaxol was positive control, at dosing of 20 mg/kg, once a week. Negative control was given saline solution. The xenograph nude mice were treated for 3 weeks."}, "[3]": {"tested_on": "human liver cancer cell BEL-7402", "assay": "Migration of liver cancer cells through base membrane", "format": "cell-based", "procedure": "Peptide SEQ ID No:1 from example 1 can inhibit human liver cancer cell BEL-7402 migration from base membrane, at 0.01, 0.1, or 1 mg/ml (12 hour incubation)."}, "α-SMA protein": {"tested_on": "α-SMA protein", "assay": "Western blot of α-SMA protein expression in HSC", "format": "cell-based, SD rat", "details": "FIG. 5", "procedure": "(§5) HSC from SD rats were separated using centrifuging on gradient created by Pronase-collagenase and Nycodenz. HSC cells at 1.5×10^5/cm2 was plated at 6-well plate, or culture dish (100 mm diameter). The culture medium is DMEM with 20% serum from newborn calf. The purity of HSC cells was determined using Vitamin A self-fluorescence and anti-Desmin immunocytochemistry experiments. Cell viability was determined using trypan blue staining. First generation HSC's purity and viability were 90% and 95% respectively. HSC can self-activate if grown in non-ECM condition, which means HSC can express α-SMA, and Vitamin A drop disappears. After cell fusion, activated HSC is released with trypsin, and propagate.\nCollect cells and add cell lysis buffer, extract total protein. Total protein amount was determined using Bradford assay. 40 μg total protein was examined using 10% SDS polyacrylamide gel. The gel was probed using monoclonal antibody against α-SMA."}, "α-SMA mRNA": {"tested_on": "α-SMA mRNA", "assay": "RT-PCR of α-SMA mRNA expression in HSC", "format": "cell-based, SD rat", "details": "after 48 hours, FIG. 4", "procedure": "as §5\nUse Trizol reagent to extract total RNA, then conduct two-step RT-PCR according to kit instructions."}, "[4]": {"tested_on": "phosphorylation of Erk1/2", "assay": "Western blot, PDGFR intracellular Ras-Raf signaling pathway in HUVEC", "format": "cell-based, Human", "details": "6 hours, 10 ug/ml (2 uM)", "procedure": "Various concentration of Peptide SEQ ID No:1 was incubated with Human Umbilical Vein Endothelial Cells (HUVEC) cells for 6 hours. Protein was extracted from these cells and western blot was performed. Antibody for p-stat1: Antibody against phophorylated-Tyr701; Antibody for p-MEK1/2: Antibody against phophorylated-Ser217/221 peptide; Antibody for p-Erk1/2: Antibody against phophorylated-Ser202/204. beta-Actin was a control to make sure all lanes are loaded with same amount of protein."}, "liver cancer (H22)": {"tested_on": "liver cancer (H22)", "assay": "Xenograph liver cancer nude mice model (H22)", "format": "in vivo", "details": "H22, 1 mg/kg", "procedure": "as §1, §2, §3, §4"}, "[5]": {"tested_on": "human liver cancer cell BEL-7402", "assay": "Cancer cell attachment to base membrane", "format": "cell-based", "details": "incubated with cancer cells for 12 hours, FIG. 6"}, "human lung cancer A549": {"tested_on": "human lung cancer A549", "assay": "Human lung cancer A549 xenograph nude mice", "format": "in vivo", "details": "6 times a week, 3 weeks", "procedure": "as §1, §2, §3, §4\nPeptide SEQ ID No:1 was given through tail vein (IV), at dosing of 0.5 mg/kg, 0.25 mg/kg, and 0.125 mg/kg, 6 times a week. Docetaxol was positive control, at dosing of 20 mg/kg, once a week. Negative control was given saline solution. The xenograph nude mice were treated for 3 weeks."}, "[6]": {"tested_on": "human breast cancer MDA-MB-435", "assay": "Human breast cancer MDA-MB-435 xenograph nude mice", "format": "in vivo", "details": "0.5 mg/kg IV, 6 times a week, 4 weeks", "procedure": "as §1, §2, §3, §4\nPeptide SEQ ID No:1 was given through tail vein (IV), at dosing of 2 mg/kg, 1 mg/kg, 0.5 mg/kg, 6 times a week. Docetaxol was positive control, at dosing of 20 mg/kg, once a week. Negative control was given saline solution. The xenograph nude mice were treated for 4 weeks."}},
  "note": "Where no end group is shown, it is not given here.",
  "data": [
    {"substance": "SKVTKKYHEVLQLRPKTGVRGLHKSLTDVALEHHEECDCVCRGSTGG-OH (cysteines drawn unpaired) [Peptide SEQ ID NO:1]", "values": [
      {"measurement": "T/C(%) relative tumor inhibition rate", "setting": "[1]", "value": 47.66, "unit": "%"},
      {"measurement": "T/C(%) relative tumor inhibition rate", "setting": "[2]; 0.0625 mg/kg IV", "value": 58.56, "unit": "%"},
      {"measurement": "T/C(%) relative tumor inhibition rate", "setting": "[2]; 0.125 mg/kg IV", "value": 62.10, "unit": "%"},
      {"measurement": "T/C(%) relative tumor inhibition rate", "setting": "[2]; 0.25 mg/kg IV", "value": 69.06, "unit": "%"},
      {"measurement": "T/C(%) relative tumor inhibition rate", "setting": "[2]; 0.5 mg/kg IV", "value": 64.90, "unit": "%"},
      {"measurement": "inhibition, tumor", "setting": "[2]; BEL-7402, 1 mg/kg", "value": 39.7, "unit": "%"},
      {"measurement": "migration from base membrane", "setting": "[3]; BEL-7402, 0.01, 0.1, or 1 mg/ml, 12 hour incubation", "value": "can inhibit"},
      {"measurement": "cancer cell migration ability through base membrane", "setting": "[3]; incubated with cancer cells for 12 hours, FIG. 7", "value": "inhibits cancer cell migration ability through base membrane"},
      {"measurement": "α-SMA protein expression (Western Blot)", "setting": "α-SMA protein; after 48 hours", "value": "starts to decrease α-SMA protein expression"},
      {"measurement": "α-SMA protein expression (Western Blot)", "setting": "α-SMA protein; after 72 hours", "value": "significantly decrease α-SMA protein expression"},
      {"measurement": "α-SMA mRNA expression (RT-PCR)", "setting": "α-SMA mRNA", "value": "inhibits α-SMA mRNA expression"},
      {"measurement": "phosphorylation of Erk1/2 (western blot)", "setting": "[4]", "value": "significantly inhibits phosphorylation of Erk1/2"},
      {"measurement": "inhibition rate, tumor", "setting": "liver cancer (H22)", "value": 67.8, "unit": "%"},
      {"measurement": "cancer cell attachment to base membrane", "setting": "[5]", "value": "inhibited cancer cell attachment to base membrane"},
      {"measurement": "T/C(%) relative tumor inhibition rate", "setting": "human lung cancer A549; 0.125 mg/kg IV", "value": 48.96, "unit": "%"},
      {"measurement": "T/C(%) relative tumor inhibition rate", "setting": "human lung cancer A549; 0.25 mg/kg IV", "value": 47.98, "unit": "%"},
      {"measurement": "T/C(%) relative tumor inhibition rate", "setting": "[6]", "value": 49.40, "unit": "%"}
    ]}
  ]
}
